Four molecules from ChEMBL document CHEMBL3244029, “Synthesis and stereospecific antipsychotic activity of (-)-1-cyclopropylmethyl-4-(3-trifluoromethylthio-5H-dibenzo[a,d]cyclohepten-5-ylidene)piperidine” (J Med Chem, 1977) can be followed below.

In general, ED50 refers to the dose that gives a 50% effect, or the effect in half of the subjects.

The subject of data set [1] is Saimiri. As to the kind of experiment: Antipsychotic activity in squirrel monkey assessed as inhibition of conditioned avoidance response measured as maximum number of shocks possible per 30 mins interval at 1 mg/kg, po after 30 to 60 mins dosing. The class given is functional.
Data set [2] has as its system Saimiri. Description: Antipsychotic activity in squirrel monkey assessed as inhibition of conditioned avoidance response measured as maximum number of shocks possible per 30 mins interval at 3 mg/kg, po after 150 to 180 mins dosing. The class given is functional.
The test system of data set [3] is Saimiri. As to the kind of experiment: Antipsychotic activity in squirrel monkey assessed as inhibition of conditioned avoidance response measured as maximum number of shocks possible per 30 mins interval at 1 mg/kg, po after 0 to 30 mins dosing. The class given is functional.
Data set [4] has as its system Saimiri. As to the kind of experiment: Antipsychotic activity in squirrel monkey assessed as inhibition of conditioned avoidance response measured as maximum number of shocks possible per 30 mins interval at 3 mg/kg, po after 120 to 150 mins dosing. The data set is classed as functional.
Data set [5] relates to Saimiri. Description: Antipsychotic activity in squirrel monkey assessed as inhibition of conditioned avoidance response measured as maximum number of shocks possible per 30 mins interval at 1 mg/kg, po after 60 to 90 mins dosing. The class given is functional.
The subject of data set [6] is Saimiri. As to the kind of experiment: Antipsychotic activity in squirrel monkey assessed as inhibition of conditioned avoidance response at 9 mg/kg, po. The class given is functional, organism-based. Also on record: dose 9 mg/kg.
In data set [7] the test system is Saimiri. As to the kind of experiment: Antipsychotic activity in squirrel monkey assessed as inhibition of conditioned avoidance response measured as maximum number of shocks possible per 30 mins interval at 3 mg/kg, po after 90 to 120 mins dosing. The class given is functional.
The test system of data set [8] is Saimiri. Description: Antipsychotic activity in squirrel monkey assessed as inhibition of conditioned avoidance response at 27 mg/kg, po. The class given is functional, organism-based. Also on record: dose 27 mg/kg.
The test system of data set [9] is Mus musculus. Description: Peripheral anticholinergic activity in po dosed Carworth CF1 mouse assessed as dose required to produce pupil dilation to 1.5 micrometer units in 50% mouse after 2 hrs. The data set is classed as ADME, organism-based. The conditions noted are these: in vivo.
Data set [10] has as its system Mus musculus. As to the kind of experiment: Central anticholinergic activity against physostigmine-induced lethality in Carworth CF1 mouse assessed as animal death at 10 mg/kg, po treated 5 hrs before 1.6 mg/kg, sc physostigmine treatment and 2 mg/kg, ip atropine methyl nitrate treated 0.5 hrs before induction (reference value: 0%). The class given is functional.
The test system of data set [11] is Saimiri. As to the kind of experiment: Antipsychotic activity in po dosed squirrel monkey assessed as inhibition of conditioned avoidance response measured as maximum number of shocks. The data set is classed as functional. The conditions noted are these: Saimiri, in Primates, po; read-out: ED50.

Each structure is given as a SMILES string. Calls of active or inactive are those of the source. The rule behind the calls is not given here.

As for `CN1CCC(=C2c3ccccc3C=Cc3ccc(SC(F)(F)F)cc32)CC1`, the “%max” value in the data set on Saimiri [1] is reported as 0.66%; in the data set on Saimiri [2], 100%; with Saimiri [3] it was 0%; with Saimiri [4] it was 100%; in the data set with Saimiri [5] it was 8%; with Saimiri [7] it was 77.4%. In addition, the inhibition entry in the data set with Saimiri [6] was “inactive”.
Consider `FC(F)(F)Sc1ccc2c(c1)C(=C1CCN(CC3CC3)CC1)c1ccccc1C=C2`, for which the inhibition entry in the data set on Saimiri [8] was “inactive”.
As for `CN1CCC(=C2c3ccccc3C=Cc3ccccc32)CC1` [CYPROHEPTADINE], the ED with Mus musculus [9] is 6 mg/kg. The Activity with Mus musculus [10] stood at 0%.
For the molecule `CSc1ccc2c(c1)N(CCC1CCCCN1C)c1ccccc1S2.Cl` (stereo unspecified) [THIORIDAZINE HYDROCHLORIDE], the ED50 with Saimiri [11] came to 0.97 mg/kg.
